Assay results from PubChem BioAssay (NCI).
“And” between values parts separate entries of the source, which are not always exact repeats. Equal values may be shown once.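 Growth conditions: 96-well plates. Treatment: test compound, 48 hours, 5 concentrations. Analysis: linear interpolation between bracketing concentrations; unreached endpoints set to highest concentration. TGI is the concentration that stops growth completely.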

Tests used:
[1] = test system: HOP-18 NSCLC; test: growth of human tumour cells (NCI), 48 h
[2] = test system: DMS 273 small cell lung; test: growth of human tumour cells (NCI), 48 h

## CC(=O)OC1c2ccccc2CCCCCCC12OCCO2 (centres undefined)
[1]
  TGI: > 100 µM

## CC(C)=CCSC1CC2C(CC1(C)O)C2(C)C (centres undefined)
[2]
  TGI: 29.9 µM and 21.5 µM

## COc1ccc(C2S/C(=C\c3ccc(O)cc3)C(=O)N2NC(=O)Cc2ccccc2)cc1 (centres undefined)
[2]
  TGI: > 100 µM
[1]
  TGI: > 100 µM
